Results on one molecule are retold here after patent US20070254843A1, “Methods for treating bone associated diseases by the use of methionine aminopeptidase-2 inhibitors” (Praecis Pharmaceuticals Incorporated, priority 2006, published 2007).

The target of test [1] is T1, MetAP-2 (Rattus norvegicus, UniProt P38062).
T1 construct: wbc from animals of each study group were pooled and cell lysates were prepared as previously described; from tissue; host or cells: white blood cells (wbc) of female Lewis rats, pooled per study group and lysed
As to the kind of experiment: MetAP-2 pharmacodynamic assay in wbc lysates. The note with it: po, PG-PS arthritis rats, 1 mg/kg p.o. qod, read-out: MetAP-2 in wbc inhibited relative to vehicle-treated group. Type of test: in vivo. As to the method: MetAP-2 pharmacodynamic assay. The MetAP-2 assay measures the amount of uninhibited MetAP-2 in cells or tissues which has not been derivitized by prior treatment with the MetAP-2 inhibitor (Bernier (2004) Proc. Natl. Acad. Sci. USA 101: 10768-10773 and Bernier (2005) J. Cell. Biochem. 95: 1191-1203). Briefly, wbc from animals of each study group were pooled and cell lysates were prepared as previously described (Bernier (2004) Proc. Natl. Acad. Sci. USA 101: 10768-10773 and Bernier (2005) J. Cell. Biochem. 95: 1191-1203). 10 μg to 20 μg of wbc protein was incubated with a biotinylated analog of the MetAP-2 inhibitor which covalently binds to the catalytic site of MetAP-2. The biotinylated MetAP-2-inhibitor complex was captured on a plate with immobilized streptavidin (Pierce), and detected with the MetAP-2 antibody CM33 (0.5 μg/ml), followed by horseradish peroxidase-conjugated goat anti-rabbit IgG secondary antibody. The amount of uninhibited MetAP-2 was determined by measuring the absorption at 450 nm using a Labsystems Multiskan plate spectrophotometer. Human recombinant MetAP-2 (Mediomics), pre-bound to the biotinylated MetAP-2 inhibitor, was used to generate the standard curve. The detection limit of this assay was 0.47 ng MetAP-2 protein/mg wbc protein.
Since the MetAP-2 inhibitor had the ability to inhibit multiple cell types critical for pathogenesis of the bone associated disease, RA, in vitro, it was hypothesized that the observations from the in vitro studies (Example 1) would translate into protection from disease in animals in the PG-PS model of arthritis. The progression of disease in this model follows a biphasic mode, with an early acute, predominantly neutrophil-driven phase which persists to days 6-7, followed by a chronic, T cell dependent phase (evident around day 12), which is characterized by chronic inflammation and erosive synovitis (Palombella (1998) Proc. Natl. Acad. Sci. USA 95:15671-15676). Therapeutic dosing of animals administered the MetAP-2 inhibitor orally (p.o.) at 1, 5 and 10 mg/kg, every other day (qod), or vehicle started at day 15 after the chronic destructive phase of the disease was established and terminated on day 31. […] The amount of uninhibited MetAP-2 in wbc of animals from all treatment groups was measured after conclusion of the study, using the MetAP-2 pharmacodynamic assay (Bernier (2004) Proc. Natl. Acad. Sci. USA 101: 10768-10773 and Bernier (2005) J. Cell. Biochem. 95: 1191-1203). […]

In test [2] the test system is PG-PS-induced arthritis. As to the kind of experiment: Clinical (histopathological) assessment of PG-PS arthritis, joint histology score. Type of test: in vivo, rat. The note with it: PG-PS arthritis, 1 mg/kg. On the procedure:
Clinical assessment of PG-PS arthritis. The histopathological evaluation was performed on the left and right hind joints of randomly selected animals from each study group by an independent histopathologist without knowledge of specific interventions. After completion of the study, the left and right hind ankles were removed, fixed in 10% buffered formalin, decalcified in 5% formic acid, paraffin-embedded, sectioned, and H&E stained for histological evaluation. A joint histology scoring system which grades the severity of 4 histopathological processes (cell infiltration, pannus formation, cartilage erosion, bone resorption), was used to quantify hind joint involvement in the PG-PS arthritis model (36). Dependent on the assigned score for each parameter (0=normal, 1=minimal, 2=mild, 3=moderate, 4=marked), the maximum total score per ankle is 16, and 32 per animal.
It was investigated whether the protective activity of the MetAP-2 inhibitor in this animal model of arthritis, which is characterized by aggressive synovitis, extensive pannus formation, cartilage degradation and focal bone erosion, was mediated through regression in the severity of all clinical indices tested, or whether this activity was targeting specific pathogenic processes.
A joint histology scoring system which grades the severity of 4 histopathological processes (cell infiltration, pannus formation, cartilage erosion, bone resorption) was used (O'Byrne (1991) Agents and Actions 134:239-241).

In test [3] the test system is PG-PS-induced arthritis. The test is described as follows: Microfocal computed tomography of hind joints in rat PG-PS arthritis model. Type of test: in vivo. The settings on record: PG-PS arthritis, 1 mg/kg; threshold 255. On the procedure:
Microfocal computed tomography. All specimens were scanned on a Scanco Medical AG μCT 40 system. Images were obtained with an isotropic voxel resolution of 20 microns. A matrix size of 1024×1024 with 1000 projections was utilized for all scans. A total of 1836 slices were scanned for each specimen (the number of slices scanned was determined by the length of the scan needed to cover the entire ankle including the distal tibia). The scan time per specimen was approximately 2.6 hours. The images were then volume rendered using a fixed threshold (at two different thresholds: 255 and 140). The total bone volume and BMD were calculated over the same regions of all the specimens. Micro-CT was performed at Scanco USA, Incorporated.
Finally, the activity of the MetAP-2 inhibitor on the structural preservation of hind joints in rats with established disease was investigated.
The ankles including the distal tibia were scanned using a Scanco Medical AG μCT 40 system (threshold: 255), and the total bone volume and BMD were calculated over the same regions of all specimens.

T1 sequence (P38062 whole entry): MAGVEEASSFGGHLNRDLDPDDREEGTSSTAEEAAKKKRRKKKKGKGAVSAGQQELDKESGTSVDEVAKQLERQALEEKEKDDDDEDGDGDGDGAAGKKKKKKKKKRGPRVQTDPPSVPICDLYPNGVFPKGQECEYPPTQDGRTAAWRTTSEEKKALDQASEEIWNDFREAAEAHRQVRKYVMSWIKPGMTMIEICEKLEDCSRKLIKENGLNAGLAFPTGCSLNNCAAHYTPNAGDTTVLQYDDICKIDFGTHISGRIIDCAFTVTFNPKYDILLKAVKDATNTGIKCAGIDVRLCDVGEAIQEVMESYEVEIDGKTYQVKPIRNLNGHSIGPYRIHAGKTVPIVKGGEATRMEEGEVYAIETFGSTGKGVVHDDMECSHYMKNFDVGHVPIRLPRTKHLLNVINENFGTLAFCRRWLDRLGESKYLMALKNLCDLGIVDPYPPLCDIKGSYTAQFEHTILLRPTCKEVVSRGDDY

Regarding `C[C@@H]1C[C@H]2[C@@H]3CCC4=CC(=O)C=C[C@]4(C)[C@@]3(F)[C@@H](O)C[C@]2(C)[C@@]1(O)C(=O)CO` [dex, dexamethasone, reference compound], the inhibition at 1 mg/kg in test [1] was at least 90%. Also, the Total arthritis score in test [2] is listed as 2.35 ± 0.23^B. Moreover, in test [2] (score 0-4), the “Bone Resorption score” value is 0.95 ± 0.13^B, the Cartilage erosion score was 0.60 ± 0.14^B, the Cell infiltration score is given as 0.25 ± 0.08^A and the Pannus formation score was 0.55 ± 0.08^A. In test [3], the BMD was found to be 1125 ± 2.59 mg HA/ccm and the “Bone Volume (Vox-BV)” value was 240.7 ± 12.68.
